From patent publication US4965280A, “Antifungal carbinols” (E. I. Du Pont de Nemours and Company, priority 1989, dated 1990)
Converted amounts (≈) assume the structure as drawn.

Legend:
[1] = test system: BARNYARDGRASS; experiment: Test C rice paddy; assay type: in vivo, Echinochloa crusgalli; settings: Echinochloa crus-galli, 504 h, 21 days, read-out: plant response; for pest or weed control at 64 g/ha: 0064 G/HA; for pest or weed control at 125 g/ha: 0125 G/HA; for pest or weed control at 250 g/ha: 0250 G/HA; for pest or weed control at 500 g/ha: 0500 G/HA
Description: (§1) Sixteen cm diameter Airlite plastic pots were partially filled with Tama slit loam soil and the soil saturated with water. Japonica and Indica rice seedlings a the 2.0 to 2.5 leaf stage were transplanted into 1/3 of the pots. Into another third of the pots were transplanted seedling or sprouted tubers of water plantain (Alisma trivale), Scripus (Scirpus paludosus), Cyperus (Cyperus esculentus), and arrowhead (Sagittaria spp.). The remaining pots were planted with barnyardgrass (Echinochloa crusgalli) seeds and sprouted tubes of water chestnut (Eleocharis spp.). These weeds all represent major rice weeds or genera of weeds important in rice. Three to four days after planting, the water level was raised to 3 cm (about 1200 ml/pot) and maintained a this level throughout the test. Chemical treatments were applied directly to the paddy water, within 24 hours of raising the water, after being formulated in a nonphytotoxic solvent. The pots were maintained in the greenhouse.

[2] = test system: WATERCHESTNUT; experiment: Test C rice paddy; assay type: in vivo, Eleocharis spp.; settings: Eleocharis, 504 h, 21 days, read-out: plant response; for pest or weed control at 64 g/ha: 0064 G/HA; for pest or weed control at 125 g/ha: 0125 G/HA; for pest or weed control at 250 g/ha: 0250 G/HA; for pest or weed control at 500 g/ha: 0500 G/HA
Description: as §1

[3] = test system: ARROWHEAD; experiment: Test C rice paddy; assay type: in vivo, Sagittaria spp.; settings: Sagittaria, 504 h, 21 days, read-out: plant response; for pest or weed control at 64 g/ha: 0064 G/HA; for pest or weed control at 125 g/ha: 0125 G/HA; for pest or weed control at 250 g/ha: 0250 G/HA; for pest or weed control at 500 g/ha: 0500 G/HA
Description: as §1

[4] = test system: YELLOW NUTSEDGE; experiment: Test C rice paddy; assay type: in vivo, Cyperus esculentus; settings: 21 days
Description: as §1

[5] = test system: RICE JAP EFF; experiment: Test C rice paddy; assay type: in vivo, Japonica rice; settings: Oryza sativa, 504 h, 21 days, read-out: plant response; for pest or weed control at 64 g/ha: 0064 G/HA; for pest or weed control at 125 g/ha: 0125 G/HA; for pest or weed control at 250 g/ha: 0250 G/HA; for pest or weed control at 500 g/ha: 0500 G/HA
Description: as §1

[6] = test system: RICE INDICA EFF; experiment: Test C rice paddy; assay type: in vivo; settings: Oryza sativa, 504 h, 21 days, read-out: plant response; for pest or weed control at 64 g/ha: 0064 G/HA; for pest or weed control at 125 g/ha: 0125 G/HA; for pest or weed control at 250 g/ha: 0250 G/HA; for pest or weed control at 500 g/ha: 0500 G/HA
Description: as §1

[7] = test system: Venturia inaequalis; experiment: Example A apple scab; assay type: in vivo; settings: 100 PPM, read-out: disease control rating, Ex. A
In short: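 Spray application to run-off on apple seedlings; compound at 100 or 20 ppm in water with 250 ppm TREM 014 (polyhydric alcohol esters) and 6% acetone of final volume.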

[8] = test system: Cercosporidium personatum; experiment: Example B Peanut Late Leafspot; assay type: in vivo; settings: Nothopassalora personata; 100 PPM; read-out: disease control rating, Ex. B
In short: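 Spray suspensions at 100 or 20 ppm, prepared from acetone solutions (acetone 6% of final volume) in water carrying 250 ppm of a polyhydric alcohol ester surfactant, were applied to peanut seedlings until run-off.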

[9] = test system: Botrytis cinerea; experiment: Example C bean grey mold; assay type: in vivo; settings: Botrytis cinerea, 24 h, 100 PPM; read-out: disease control rating, Ex. C
In short: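 Spray rates: 100 and 20 ppm. Vehicle: purified water with 6% acetone by final volume plus 250 ppm TREM 014 (polyhydric alcohol esters). Host plants, broad bean seedlings, were wetted until run-off.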

[10] = test system: Erysiphe graminis f. sp. tritici; experiment: Example D wheat powdery mildew; assay type: in vivo; settings: Blumeria graminis, 144 h; 100 PPM; read-out: disease control rating, Ex. D
In short: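 Seedling wheat was treated by spraying to run-off; formulation used acetone as co-solvent (6% final) and TREM 014 surfactant at 250 ppm, with compound at 100 or 20 ppm.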

[11] = test system: Rhizoctonia solani; experiment: Example F rice sheath blight; assay type: in vivo; settings: Rhizoctonia solani, 144 h, 100 PPM; read-out: disease control rating, Ex. F
In short: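 Foliar run-off spray, rice seedlings: compound at 100 or 20 ppm in aqueous 250 ppm polyhydric alcohol ester surfactant, acetone 6% v/v final.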

[12] = test system: Puccinia recondita; experiment: Example G wheat leaf rust; assay type: in vivo; settings: 100 PPM, read-out: disease control rating, Ex. G
[13] = test system: Phytophthora infestans; experiment: whole plant or invertebrate; assay type: in vivo; settings: Phytophthora infestans, in Solanum lycopersicum, read-out: disease control rating, Ex. H, 100 PPM
[14] = test system: Candida albicans ATCC 11651; experiment: In vitro antifungal MIC, microtiter broth dilution; settings: Candida albicans, ATCC11651, 24 h, read-out: MIC values, C. albicans, 30°, 24 hours
[15] = test system: Rhizoctonia solani; experiment: Example K cotton blight; assay type: in vivo; settings: 336 h, 5 kg/ha, read-out: disease control rating, Ex. K
Protocol: […] Seeds and soil were then inoculated with a mixture of sand, cereal and mycelium of the fungus Rhizoctonia solani, causal agent of cotton blight, and incubated in a growth chamber at 30° C. for 14 days. Disease ratings were then made.

[16] = test system: Sclerotium rolfsii; experiment: Example M southern blight; assay type: in vivo; settings: Agroathelia rolfsii, 336 h; 5 kg/ha; read-out: disease control rating, Ex. M
Protocol: […] Seeds and soil were then inoculated with a mixture of sand, cereal and mycelium of the fungus Sclerotium rolfsii, causal agent of sourthern blight, and incubated in a growth chamber at 30° C. for 14 days. Disease ratings were then made.

[17] = test system: Fusarium oxysporum f. sp. cucumerinum; experiment: Example L cucumber wilt; assay type: in vivo; settings: 336 h, 5 kg/ha, read-out: disease control rating, Ex. L
Protocol: […] Seeds and soil were then inoculated with a mixture of sand, cereal and mycelium of the fungus Fusarium oxysporum f. sp. cucumerinum, causal agent of cucumber wilt, and incubated in a growth chamber at 30° C. for 14 days. Disease ratings were then made.

| SMILES | pest or weed control at 64 g/ha [1] | pest or weed control at 125 g/ha [1] | pest or weed control at 250 g/ha [1] | pest or weed control at 500 g/ha [1] | pest or weed control at 1000 g/ha [1] | pest or weed control at 64 g/ha [2] | pest or weed control at 125 g/ha [2] | pest or weed control at 250 g/ha [2] | pest or weed control at 500 g/ha [2] | pest or weed control at 1000 g/ha [2] | pest or weed control at 100 ppm [7] | pest or weed control at 100 ppm [8] | pest or weed control at 100 ppm [9] | pest or weed control at 100 ppm [10] | pest or weed control at 100 ppm [11] | pest or weed control at 100 ppm [12] | pest or weed control at 100 ppm [13] | MIC [14] | pest or weed control at 5000 g/ha [15] | pest or weed control at 5000 g/ha [16] | also measured |
| --- | --- | --- | --- | --- | --- | --- | --- | --- | --- | --- | --- | --- | --- | --- | --- | --- | --- | --- | --- | --- | --- |
| C=C(c1ccc(Cl)cc1Cl)C(O)(Cn1cncn1)c1ccccc1F (centres unmarked) [Example 107] | 0% | 0% | 40% | 90% | 80% | 0% | 0% | 40% | 60% | 30% | – | – | – | – | – | – | – | – | – | – | pest or weed control at 64 g/ha [3]: 0%; pest or weed control at 125 g/ha [3]: 0%; pest or weed control at 250 g/ha [3]: 0%; pest or weed control at 500 g/ha [3]: 95%; pest or weed control at 1000 g/ha [3]: 70%; plant response ([4]; 0064 G/HA): 0; plant response ([4]; 0125 G/HA): 0; plant response ([4]; 0250 G/HA): 50; plant response ([4]; 0500 G/HA): 30; plant response ([4]; 1000 G/HA): 95; pest or weed control at 64 g/ha [5]: 0%; pest or weed control at 125 g/ha [5]: 0%; pest or weed control at 250 g/ha [5]: 30%; pest or weed control at 500 g/ha [5]: 40%; pest or weed control at 1000 g/ha [5]: 50%; pest or weed control at 64 g/ha [6]: 0%; pest or weed control at 125 g/ha [6]: 0%; pest or weed control at 250 g/ha [6]: 30%; pest or weed control at 500 g/ha [6]: 40%; pest or weed control at 1000 g/ha [6]: 50% |
| C=C(c1ccccc1)C(O)(Cn1cncn1)c1ccc(Cl)cc1 (centres unmarked) [Example 51, 2-(4-Chlorophenyl)-3-phenyl-1-(1H-1,2,4-triazol-1-yl)-3-buten-2-ol] | – | – | – | – | – | – | – | – | – | – | 100% | 100% | 96% | 100% | 100% | 100% | 0% | 0.03 µg/mL (≈ 0.0921 µM) | – | – | – |
| C=C(c1ccc(F)cc1)C(O)(Cn1cncn1)c1ccccc1F (centres unmarked) [Example 644] | – | – | – | – | – | – | – | – | – | – | 100% | 100% | 94% | 100% | 100% | 100% | 23% | 0.03 µg/mL (≈ 0.0916 µM) | 0% | – | – |
| C=C(c1ccc(Cl)cc1)C(O)(Cn1cncn1)c1ccccc1F (centres unmarked) [Example 669] | 90% | 98% | 98% | 90% | 100% | 0% | 0% | 0% | 0% | 0% | 100% | 100% | 90% | 100% | 100% | 100% | 0% | 0.03 µg/mL (≈ 0.0873 µM) | 0% | 0% | pest or weed control at 64 g/ha [3]: 0%; pest or weed control at 125 g/ha [3]: 0%; pest or weed control at 250 g/ha [3]: 0%; pest or weed control at 500 g/ha [3]: 0%; pest or weed control at 1000 g/ha [3]: 0%; plant response ([4]; 0064 G/HA): 0; plant response ([4]; 0125 G/HA): 0; plant response ([4]; 0250 G/HA): 0; plant response ([4]; 0500 G/HA): 60; plant response ([4]; 1000 G/HA): 80; pest or weed control at 64 g/ha [5]: 0%; pest or weed control at 125 g/ha [5]: 0%; pest or weed control at 250 g/ha [5]: 0%; pest or weed control at 500 g/ha [5]: 0%; pest or weed control at 1000 g/ha [5]: 0%; pest or weed control at 64 g/ha [6]: 0%; pest or weed control at 125 g/ha [6]: 0%; pest or weed control at 250 g/ha [6]: 0%; pest or weed control at 500 g/ha [6]: 0%; pest or weed control at 1000 g/ha [6]: 0% |
| C=C(c1ccccc1)C(O)(Cn1cncn1)c1ccc(F)cc1F (centres unmarked) [Example 52, 2-(2,4-Difluorophenyl)-3-phenyl-1-(1H-1,2,4-triazol-1-yl)-3-buten-2-ol] | – | – | – | – | – | – | – | – | – | – | 100% | 100% | 95% | 94% | 81% | 100% | 0% | 0.03 µg/mL (≈ 0.0916 µM) | – | 0% | pest or weed control at 5000 g/ha [17]: 0% |
| C=C(c1ccc(F)cc1)C(O)(Cn1cncn1)c1ccc(F)cc1F (centres unmarked) [Example 4, 2-(2,4-Difluorophenyl)-3-(4-fluorophenyl)-1-(1H-1,2,4-triazol-1-yl)-3-buten-2-ol] | – | – | – | – | – | – | – | – | – | – | 100% | 100% | 88% | 100% | 100% | 100% | 0% | 0.03 µg/mL (≈ 0.0869 µM) | 0% | 0% | – |
